From US20210254056A1, “IDENTIFICATION AND TARGETED MODULATION OF GENE SIGNALING NETWORKS” (CAMP4 THERAPEUTICS CORPORATION, priority 2017, published 2021)
Like-named read-outs stand apart in the source and are kept apart here.

Experiments:
TF1 cells = assay: Biological activity of maximal compound dosages in TF1 cells; type: cell-based; conditions: 10 μM dose
Protocol: (§1) The stock for each compound was at 10 mM and were diluted to 100 μM with RMPI+GCMSF (2% DMSO). Cells were collected and resuspended in 8 mL of RPMI+GMCSF at a concentration of 1×10^6 cells/mL. For the TF1 cells, at each well of a 6-well plate were added 1 mL of cells, 300 μL of 100 μM compound dilution, and 1.7 mL of RMPI+GCMSF+1.5% DMSO (1% final DMSO concentration in 3 mL total). One mL of the CI-CB-CD34+ cells, 300 μL of 100 μM compound dilution, and 700 μL of RMPI+GCMSF ([…]) were added to each well of a 6-well plate.
(§2) Compound dilutions were performed as described in Example 1. […] In a 6-well format, there were 1 million cells/well=1 million cells/ml=1000 cells/pl. […].

CI-CB-CD34+ cells = assay: Biological activity of maximal compound dosages in CI-CB-CD34+ cells; type: cell-based, human; conditions: 10 μM dose
Protocol: as §1, §2

[1] = tested on: primary human hepatocytes; assay: RNA-seq of primary human hepatocytes treated with 39 small molecules (pilot and validation); conditions: for Number (#) of genes having significantly changed expression: pilot RNA-seq study of Example 2, significance: FPKM≥0.5, log 2(fold change)≥1, q-value ≤0.05
[2] = tested on: primary human hepatocytes
[3] = RNA-seq, p-value≤0.05, primary human hepatocytes, the modulated genes are listed in the block

## Cc1ccc(-c2cn3c4c(sc3n2)CCCC4)cc1 [Cyclic-pifithrin alpha, Cyclic Pifithrin-a]
TF1 cells
  response of TF1 cells (biological activity, cell viability): did not significantly respond

## COc1ccc(C2=N[C@@H](c3ccc(Cl)cc3)[C@@H](c3ccc(Cl)cc3)N2C(=O)N2CCNC(=O)C2)c(OC(C)C)c1 (racemic) [Nutlin 3]
CI-CB-CD34+ cells
  biological activity of CD34+ cells (cell viability): reduced biological activity
TF1 cells
  response of TF1 cells (biological activity, cell viability): did not significantly respond

## Cc1ccc(C(=O)Cn2c3c(sc2=N)CCCC3)cc1 [Pifithrin alpha, Pifithrin-α]
CI-CB-CD34+ cells
  biological activity of CD34+ cells (cell viability): little or no effect
TF1 cells
  response of TF1 cells (biological activity, cell viability): did not significantly respond

## CC(C)(S)[C@@H](N)C(=O)O [MT-741, Penicillamine(D-)]
[1]; RNA-seq validation, duplicates, gene ACADVL
  Log2 fold changes in gene expression: ACADVL: −0.04
[1]; RNA-seq validation, duplicates, gene ACAT2
  Log2 fold changes in gene expression: ACAT2: −0.05
[1]; RNA-seq validation, duplicates, gene ACSL1
  Log2 fold changes in gene expression: ACSL1: 0
[1]; RNA-seq validation, duplicates, gene ACSL5
  Log2 fold changes in gene expression: ACSL5: −0.05
[1]; RNA-seq validation, duplicates, gene AGPAT2
  Log2 fold changes in gene expression: AGPAT2: −0.11
[1]; RNA-seq validation, duplicates, gene AGTR1
  Log2 fold changes in gene expression: AGTR1: −0.04
[1]; RNA-seq validation, duplicates, gene AHSG
  Log2 fold changes in gene expression: AHSG: 0.03
[1]; RNA-seq validation, duplicates, gene ALAS1
  Log2 fold changes in gene expression: ALAS1: −0.11
[1]; RNA-seq validation, duplicates, gene AMACR
  Log2 fold changes in gene expression: AMACR: −0.24
[1]; RNA-seq validation, duplicates, gene ARG1
  Log2 fold changes in gene expression: ARG1: 0.01
[1]; RNA-seq validation, duplicates, gene CA2
  Log2 fold changes in gene expression: CA2: −0.18
[1]; RNA-seq validation, duplicates, gene CA12
  Log2 fold changes in gene expression: CA12: −0.02
[1]; RNA-seq validation, duplicates, gene CIDEC
  Log2 fold changes in gene expression: CIDEC: −0.24
[1]; RNA-seq validation, duplicates, gene COL1A1
  Log2 fold changes in gene expression: COL1A1: 0.14
[1]; RNA-seq validation, duplicates, gene CPS1
  Log2 fold changes in gene expression: CPS1: −0.12
[1]; RNA-seq validation, duplicates, gene CPT1A
  Log2 fold changes in gene expression: CPT1A: 0.04
[1]; RNA-seq validation, duplicates, gene CPT2
  Log2 fold changes in gene expression: CPT2: −0.22
[1]; RNA-seq validation, duplicates, gene CYP21A2
  Log2 fold changes in gene expression: CYP21A2: 0.04
[1]; RNA-seq validation, duplicates, gene ECH1
  Log2 fold changes in gene expression: ECH1: −0.14
[1]; RNA-seq validation, duplicates, gene ENO3
  Log2 fold changes in gene expression: ENO3: −0.17
[1]; RNA-seq validation, duplicates, gene ETFDH
  Log2 fold changes in gene expression: ETFDH: −0.12
[1]; RNA-seq validation, duplicates, gene FABP1
  Log2 fold changes in gene expression: FABP1: −0.22
[1]; RNA-seq validation, duplicates, gene G6PC
  Log2 fold changes in gene expression: G6PC: 0.14
[1]; RNA-seq validation, duplicates, gene GHR
  Log2 fold changes in gene expression: GHR: −0.13
[1]; RNA-seq validation, duplicates, gene GLA
  Log2 fold changes in gene expression: GLA: −0.06
[1]; RNA-seq validation, duplicates, gene HGD
  Log2 fold changes in gene expression: HGD: −0.16
[1]; RNA-seq validation, duplicates, gene HMGCR
  Log2 fold changes in gene expression: HMGCR: 0.05
[1]; RNA-seq validation, duplicates, gene HMGCS2
  Log2 fold changes in gene expression: HMGCS2: −0.03
[1]; RNA-seq validation, duplicates, gene HMOX1
  Log2 fold changes in gene expression: HMOX1: 0.05
[1]; RNA-seq validation, duplicates, gene HOGA1
  Log2 fold changes in gene expression: HOGA1: 0
[1]; RNA-seq validation, duplicates, gene HPGD
  Log2 fold changes in gene expression: HPGD: −0.06
[1]; RNA-seq validation, duplicates, gene IFT27
  Log2 fold changes in gene expression: IFT27: −0.01
[1]; RNA-seq validation, duplicates, gene LDHA
  Log2 fold changes in gene expression: LDHA: 0.08
[1]; RNA-seq validation, duplicates, gene LPIN2
  Log2 fold changes in gene expression: LPIN2: 0.17
[1]; RNA-seq validation, duplicates, gene MOGAT2
  Log2 fold changes in gene expression: MOGAT2: 0.13
[1]; RNA-seq validation, duplicates, gene NCF2
  Log2 fold changes in gene expression: NCF2: −0.19
[1]; RNA-seq validation, duplicates, gene PCSK9
  Log2 fold changes in gene expression: PCSK9: 0.17
[1]; RNA-seq validation, duplicates, gene POR
  Log2 fold changes in gene expression: POR: −0.14
[1]; RNA-seq validation, duplicates, gene RMRP
  Log2 fold changes in gene expression: RMRP: −1.45
[1]; RNA-seq validation, duplicates, gene SLC2A2
  Log2 fold changes in gene expression: SLC2A2: −0.22
[1]; RNA-seq validation, duplicates, gene SLC6A6
  Log2 fold changes in gene expression: SLC6A6: −0.35
[1]; RNA-seq validation, duplicates, gene SLC25A20
  Log2 fold changes in gene expression: SLC25A20: −0.31
[1]; RNA-seq validation, duplicates, gene SLC37A4
  Log2 fold changes in gene expression: SLC37A4: 0.09
[1]; RNA-seq validation, duplicates, gene SLC51B
  Log2 fold changes in gene expression: SLC51B: −0.08
[1]; RNA-seq validation, duplicates, gene SULT2A1
  Log2 fold changes in gene expression: SULT2A1: −0.18
[1]; RNA-seq validation, duplicates, gene TAT
  Log2 fold changes in gene expression: TAT: 0.09
[1]; RNA-seq validation, duplicates, gene TDO2
  Log2 fold changes in gene expression: TDO2: −0.14
[1]; RNA-seq validation, duplicates, gene TMEM135
  Log2 fold changes in gene expression: TMEM135: −0.16
[1]; RNA-seq validation, duplicates, gene TNFSF11
  Log2 fold changes in gene expression: TNFSF11: 0.04
[1]; RNA-seq validation, duplicates, gene VLDLR
  Log2 fold changes in gene expression: VLDLR: 0.09
[1]; [3]
  significant modulation of gene expression: significantly (p-value≤0.05) modulate
[1]
  Number (#) of genes having significantly changed expression: 9
[2]
  Log2 fold changes in gene expression: CYP2C19: 0.04
  Log2 fold changes in gene expression: CYP3A4: −0.08

## COc1ccc(Cc2nccc3cc(OC)c(OC)cc23)cc1OC [MT-913, Papaverine]
[1]; [3]
  significant modulation of gene expression: significantly (p-value≤0.05) modulate
[1]
  Number (#) of genes having significantly changed expression: 12
[2]
  Log2 fold changes in gene expression: CYP2C19: 0.09
  Log2 fold changes in gene expression: CYP3A4: 0.06

## CN(C)CCC=C1c2ccccc2COc2ccccc21 [MT-723, Adapin (doxepin)]
[1]
  Log2 fold changes in gene expression: ACADVL: 0
  Log2 fold changes in gene expression: ACAT2: −0.03
  Log2 fold changes in gene expression: ACSL1: 0.04
  Log2 fold changes in gene expression: ACSL5: 0.03
  Log2 fold changes in gene expression: AGPAT2: −0.05
  Log2 fold changes in gene expression: AGTR1: 0.03
  Log2 fold changes in gene expression: AHSG: −0.07
  Log2 fold changes in gene expression: ALAS1: −0.01
  Log2 fold changes in gene expression: AMACR: −0.11
  Log2 fold changes in gene expression: ARG1: 0.07
  Log2 fold changes in gene expression: CA2: −0.08
  Log2 fold changes in gene expression: CA12: 0.29
  Log2 fold changes in gene expression: CIDEC: 0.09
  Log2 fold changes in gene expression: COL1A1: −0.14
  Log2 fold changes in gene expression: CPS1: −0.04
  Log2 fold changes in gene expression: CPT1A: 0.06
  Log2 fold changes in gene expression: CPT2: −0.09
  Log2 fold changes in gene expression: CYP21A2: 0.08
  Log2 fold changes in gene expression: ECH1: −0.04
  Log2 fold changes in gene expression: ENO3: −0.21
  Log2 fold changes in gene expression: ETFDH: 0.05
  Log2 fold changes in gene expression: FABP1: −0.08
  Log2 fold changes in gene expression: G6PC: 0.03
  Log2 fold changes in gene expression: GHR: −0.05
  Log2 fold changes in gene expression: GLA: 0.01
  Log2 fold changes in gene expression: HGD: 0
  Log2 fold changes in gene expression: HMGCR: 0.02
  Log2 fold changes in gene expression: HMGCS2: −0.04
  Log2 fold changes in gene expression: HMOX1: 0.22
  Log2 fold changes in gene expression: HOGA1: 0.03
  Log2 fold changes in gene expression: HPGD: 0.05
  Log2 fold changes in gene expression: IFT27: 0
  Log2 fold changes in gene expression: LDHA: −0.09
  Log2 fold changes in gene expression: LPIN2: 0.03
  Log2 fold changes in gene expression: MOGAT2: 0.01
  Log2 fold changes in gene expression: NCF2: −0.21
  Log2 fold changes in gene expression: PCSK9: 0.11
  Log2 fold changes in gene expression: POR: 0.1
  Log2 fold changes in gene expression: RMRP: −0.14
  Log2 fold changes in gene expression: SLC2A2: −0.04
  Log2 fold changes in gene expression: SLC6A6: 0.17
  Log2 fold changes in gene expression: SLC25A20: −0.1
  Log2 fold changes in gene expression: SLC37A4: −0.17
  Log2 fold changes in gene expression: SLC51B: −0.26
  Log2 fold changes in gene expression: SULT2A1: 0.03
  Log2 fold changes in gene expression: TAT: −0.1
  Log2 fold changes in gene expression: TDO2: −0.14
  Log2 fold changes in gene expression: TMEM135: 0.05
  Log2 fold changes in gene expression: TNFSF11: −0.11
  Log2 fold changes in gene expression: VLDLR: 0.01
  significant modulation of gene expression: significantly (p-value≤0.05) modulate
[2]
  Log2 fold changes in gene expression: CYP2C19: 0.18
  Log2 fold changes in gene expression: CYP3A4: 0.14
